Values quoted from earlier work, collected in patent US20100173012A1 (priority 2008, published 2010).

Test system: Fusarium graminearum
Conditions: previous work of the inventors
In the case of `OC[C@@H](O)[C@@H](O)[C@H](O)[C@H](O)CO` [mannitol], the “use to reduce ascospore discharge in F. graminearum” value (shortened to “use to reduce ascospore discharge”) is given as “successfully used”.
For `COc1ccc(CCN(C)CCCC(C#N)(c2ccc(OC)c(OC)c2)C(C)C)cc1OC` (stereo not shown) [verapamil], the “use to reduce ascospore discharge” value is given as “successfully used”.
For `CCN(CC)CCCCCCCCOC(=O)c1cc(OC)c(OC)c(OC)c1` [TMB8], the “use to reduce ascospore discharge” value is listed as “successfully used”.
In the case of `COc1ccc(Cl)cc1C(=O)NCCc1ccc(S(=O)(=O)NC(=O)NC2CCCCC2)cc1` [glyburide], the “use to reduce ascospore discharge” value is given as “successfully used”.
For `OCC(O)CO` [glycerol], the “use to reduce ascospore discharge” value is listed as “successfully used”.
For `Cc1ccc(S(=O)(=O)NC(=O)NN2CCCCCC2)cc1` [Tolazamide], the “use to reduce ascospore discharge” value is listed as “successfully used”.
In the case of `O=C(O)CN(CC(=O)O)c1ccccc1OCCOc1ccccc1N(CC(=O)O)CC(=O)O` [BAPTA], the “use to reduce ascospore discharge” value is listed as “successfully used”.
